Laboratory results published in the NIST ThermoML archive (doi:10.1021/acs.jced.6b00424).
Numbers after ± are expanded uncertainties.

Test: refractive index (Na D-line) (dimensionless)
Details: 293.15 K, Liquid, Standard Abbe refractometry

Row | SMILES | refractive index (101.23 kPa) | refractive index (100 kPa)
1 | c1ccoc1 [furan] | 1.4218 ± 0.0004 | 
2 | Cc1ccccc1 [toluene] |  | 1.4966 ± 0.0007
